In ChEMBL document CHEMBL5356978 (Bioorg Med Chem Lett, 2024):
Activity calls are given as the source filed them. No cut-off for these calls is given here.

Key:
[1] = target: T1, beta-catenin-B-cell lymphoma 9 protein complex (Homo sapiens, UniProt P35222); test: Inhibition of full length beta-catenin (unknown origin)/FAM labeled BCL9 (350 to 375 residues) (unknown origin) protein-protein interaction by competitive FP assay; type: protein-complex assay
T1 sequence (P35222 whole entry): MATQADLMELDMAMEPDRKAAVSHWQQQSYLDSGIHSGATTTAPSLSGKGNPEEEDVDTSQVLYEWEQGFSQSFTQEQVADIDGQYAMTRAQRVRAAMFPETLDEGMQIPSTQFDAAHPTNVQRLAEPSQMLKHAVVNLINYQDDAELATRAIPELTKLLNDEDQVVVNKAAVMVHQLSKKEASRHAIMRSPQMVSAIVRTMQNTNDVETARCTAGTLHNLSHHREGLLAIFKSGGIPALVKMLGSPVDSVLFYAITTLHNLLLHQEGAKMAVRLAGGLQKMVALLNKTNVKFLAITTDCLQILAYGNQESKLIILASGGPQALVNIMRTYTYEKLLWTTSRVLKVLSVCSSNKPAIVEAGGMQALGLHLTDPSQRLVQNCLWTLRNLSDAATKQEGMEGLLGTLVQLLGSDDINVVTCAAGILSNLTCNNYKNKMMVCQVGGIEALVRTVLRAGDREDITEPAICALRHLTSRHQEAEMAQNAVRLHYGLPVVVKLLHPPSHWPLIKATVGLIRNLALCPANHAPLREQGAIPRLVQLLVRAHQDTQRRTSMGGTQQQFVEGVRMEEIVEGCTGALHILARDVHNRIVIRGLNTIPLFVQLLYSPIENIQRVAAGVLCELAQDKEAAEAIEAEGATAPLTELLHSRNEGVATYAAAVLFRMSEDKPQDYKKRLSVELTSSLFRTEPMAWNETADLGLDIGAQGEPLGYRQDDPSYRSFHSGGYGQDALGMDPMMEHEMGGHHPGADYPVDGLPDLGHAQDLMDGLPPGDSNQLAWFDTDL
T1 sequence (O00512 whole entry): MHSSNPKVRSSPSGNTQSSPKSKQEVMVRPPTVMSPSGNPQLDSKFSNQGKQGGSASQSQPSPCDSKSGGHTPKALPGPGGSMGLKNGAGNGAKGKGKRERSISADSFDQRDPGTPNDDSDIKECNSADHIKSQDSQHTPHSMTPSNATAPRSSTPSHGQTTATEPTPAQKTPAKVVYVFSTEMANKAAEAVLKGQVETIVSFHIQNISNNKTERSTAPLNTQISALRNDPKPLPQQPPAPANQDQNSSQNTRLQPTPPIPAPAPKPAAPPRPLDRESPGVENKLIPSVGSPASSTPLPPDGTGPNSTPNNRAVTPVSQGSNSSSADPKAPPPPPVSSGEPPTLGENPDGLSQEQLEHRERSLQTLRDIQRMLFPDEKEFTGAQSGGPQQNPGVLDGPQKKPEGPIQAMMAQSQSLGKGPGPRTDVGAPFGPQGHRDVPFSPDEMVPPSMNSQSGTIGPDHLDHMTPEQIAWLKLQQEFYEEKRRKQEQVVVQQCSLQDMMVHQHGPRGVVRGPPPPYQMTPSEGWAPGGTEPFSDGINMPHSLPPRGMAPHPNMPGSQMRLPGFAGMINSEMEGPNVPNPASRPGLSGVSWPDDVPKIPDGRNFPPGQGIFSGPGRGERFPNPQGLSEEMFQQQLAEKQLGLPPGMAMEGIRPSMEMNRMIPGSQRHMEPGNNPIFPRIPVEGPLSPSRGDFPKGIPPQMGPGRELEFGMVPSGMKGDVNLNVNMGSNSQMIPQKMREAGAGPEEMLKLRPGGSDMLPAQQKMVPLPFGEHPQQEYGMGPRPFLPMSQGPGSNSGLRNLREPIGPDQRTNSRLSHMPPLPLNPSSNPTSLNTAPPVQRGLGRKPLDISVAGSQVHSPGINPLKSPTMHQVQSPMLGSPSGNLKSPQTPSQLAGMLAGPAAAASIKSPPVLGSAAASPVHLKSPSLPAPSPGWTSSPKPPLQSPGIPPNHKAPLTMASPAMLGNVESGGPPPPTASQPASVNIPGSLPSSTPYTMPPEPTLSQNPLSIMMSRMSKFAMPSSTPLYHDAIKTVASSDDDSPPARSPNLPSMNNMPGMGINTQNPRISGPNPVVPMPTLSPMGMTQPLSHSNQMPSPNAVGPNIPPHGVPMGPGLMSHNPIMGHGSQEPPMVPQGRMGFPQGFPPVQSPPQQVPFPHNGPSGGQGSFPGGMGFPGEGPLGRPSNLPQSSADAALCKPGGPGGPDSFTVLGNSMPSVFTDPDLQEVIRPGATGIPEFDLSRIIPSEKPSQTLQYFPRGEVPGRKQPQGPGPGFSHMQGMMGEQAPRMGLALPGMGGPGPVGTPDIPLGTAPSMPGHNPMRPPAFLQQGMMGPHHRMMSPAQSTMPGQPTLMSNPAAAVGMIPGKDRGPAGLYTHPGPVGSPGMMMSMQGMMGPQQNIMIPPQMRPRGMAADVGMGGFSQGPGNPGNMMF

[2] = Inhibition of Wnt/beta-catenin signaling pathway in mouse CT26 cells assessed as downregulation of AXIN2 expression incubated for 24 hrs by qPCR analysis; conditions: CT26, 24 h
CT26 [3] = test: Antiproliferative activity against mouse CT26 cells harboring active Wnt/beta-catenin signal assessed as inhibition of cell proliferation by CCK8 assay
[4] = Toxicity in mouse implanted with mouse CT26 cells assessed as reduction in body weight at 15 mg/kg, ip administered for 7 days and measured for 11 days; type: organism-based; conditions: in vivo, 168 h, time 7 day
CT26 [5] = test: Antimigratory activity in mouse CT26 cells assessed as reduction in cell migration incubated for 24 hrs by transwell assay; type: functional, cell-based; conditions: dose 5-20 µM
CT26 [6] = test: Induction of apoptosis in mouse CT26 cells at 5 uM incubated for 24 hrs by annexin V-FITC/PI staining based flow cytometry analysis relative to control; type: functional
[7] = […] Colorectal cancer cells (unknown origin) assessed as regulation of immune microenvironment by measuring granzyme B positive cells at 5 to 10 uM incubated for 24 hrs by flow cytometry analysis (reference value: 16.2%); type: functional; set-up: scale not given: the % may be the effect or the level left; conditions: dose 5-10 µM
CT26 [8] = test: Induction of apoptosis in mouse CT26 cells assessed as increase in late apoptotic cells at 5 to 20 uM incubated for 24 hrs by annexin V-FITC/PI staining based flow cytometry analysis; type: functional, cell-based; conditions: dose 5-20 µM
CT26 [9] = test: Antitumor activity against mouse CT26 cells implanted in mouse assessed as tumor growth inhibition at 15 mg/kg, ip administered for 7 days relative to control; type: functional; conditions: CT26, 168 h, time 7 day, read-out: TGI
HCT-116 = test: Antiproliferative activity against human HCT-116 cells assessed as inhibition of cell proliferation by CCK8 assay
cells = conditions: Homo sapiens, HCT-116, 24 h
Description: Inhibition of Wnt pathway in human HCT-116 cells assessed as inhibition of Auxin2 expression incubated for 24 hrs by qPCR analysis

CT26 [10] = test: Induction of apoptosis in mouse CT26 cells at 20 uM incubated for 24 hrs by annexin V-FITC/PI staining based flow cytometry analysis relative to control; type: functional
[11] = Inhibition of Wnt/beta-catenin signaling transactivation in human HCT-116 cells assessed as reduction in downstream nuclear transcription ability by TCF/LEF reporter assay
CT26 [12] = test: Antitumor activity against mouse CT26 cells implanted in mouse assessed as reduction in tumor size at 15 mg/kg, ip administered for 7 days; type: functional, organism-based; conditions: time 7.0 day

SMILES	IC50 [1] [µM]	IC50 [2] [µM]	IC50 (CT26 [3]) [µM]	further results
COC(=O)c1ccc(-c2c(OC)cc(OC)c3c(=O)c(OC)c(-c4ccc(OC)c(OC)c4)oc23)cc1	7.64	12	16	–
COc1ccc(-c2c(OC)cc(OC)c3c(=O)c(OC)c(-c4ccc(OC)c(OC)c4)oc23)cc1	17.3	1.14	27.8	–
COC(=O)c1ccc(-c2c(O)cc(O)c3c(=O)c(O)c(-c4ccc(O)c(O)c4)oc23)cc1	2.99	5.05	15.1	–
COc1ccc(-c2oc3c(-c4ccc(C)cc4)c(OC)cc(OC)c3c(=O)c2OC)cc1OC	5.24	1.97	11.4	–
COc1ccc(-c2oc3c(-c4ccc(C(=O)O)cc4)c(OC)cc(OC)c3c(=O)c2OC)cc1OC	4.52	10.4	14.1	–
COc1ccc(-c2oc3c(C4=CCNCC4)c(OC)cc(OC)c3c(=O)c2OC)cc1OC	8.92	1.06	12.9	–
COc1ccc(-c2oc3c(-c4ccc(F)c(F)c4)c(OC)cc(OC)c3c(=O)c2OC)cc1OC	5.78	12	32.1	–
O=c1c(O)c(-c2ccc(O)c(O)c2)oc2c(-c3ccccc3)c(O)cc(O)c12	3.83	1.31	3.32	–
COc1ccc(-c2oc3c(-c4ccc(F)cc4)c(OC)cc(OC)c3c(=O)c2OC)cc1OC	6.93	4.57	19.8	–
O=c1c(O)c(-c2ccc(O)c(O)c2)oc2c(-c3ccc(F)cc3)c(O)cc(O)c12	2.35	0.8	3.32	–
COc1ccc(-c2oc3c(C4CC4)c(OC)cc(OC)c3c(=O)c2OC)cc1OC	20	2.04	3.39	–
COc1ccc(-c2oc3c(-c4ccccc4)c(OC)cc(OC)c3c(=O)c2OC)cc1OC	12.1	1.11	15.1	–
COc1ccc(-c2oc3c(Nc4ccccc4)c(OC)cc(OC)c3c(=O)c2OC)cc1OC	16.2	1.09	2.49	–
COc1ccc(-c2oc3c(-c4ccncc4)c(OC)cc(OC)c3c(=O)c2OC)cc1OC	2.75	3.1	14.2	–
Cc1ccc(-c2c(O)cc(O)c3c(=O)c(O)c(-c4ccc(O)c(O)c4)oc23)cc1	–	0.76	1.69	Activity [4]: Non-Toxic; Activity (CT26 [5]): Dose-Dependent Effect; Activity (CT26 [6]): 29.11%; Activity [7]: 44.5%; Activity (CT26 [8]): Active; inhibition in vivo at 15 mg/kg (CT26 [9]): 76%; IC50 (HCT-116): 1.7 µM; IC50 (cells): 4.02 µM; Activity (CT26 [10]): 34.03%; IC50 [11]: 0.76 µM; Activity (CT26 [12]): Active
COc1ccc(-c2oc3c(-c4ccc(C(F)(F)F)cc4)c(OC)cc(OC)c3c(=O)c2OC)cc1OC	8.81	9.2	16.2	–
O=c1c(O)c(-c2ccc(O)c(O)c2)oc2c(-c3ccc(F)c(F)c3)c(O)cc(O)c12	3.15	1.45	7.1	–
O=c1c(O)c(-c2ccc(O)c(O)c2)oc2cc(O)cc(O)c12 [QUERCETIN]	–	7.7	–	Activity [4]: Non-Toxic; Activity (CT26 [5]): Dose-Dependent Effect; Activity (CT26 [6]): 17.36%; inhibition in vivo at 15 mg/kg (CT26 [9]): 43.1%; IC50 (HCT-116): 11.4 µM; IC50 (cells): 9.95 µM; Activity (CT26 [10]): 23.89%; IC50 [11]: 4.87 µM
